The source of these data is US20100160556A1, “GLP-1 Fusion Peptides Conjugated to Polymer(s), Their Production and Use” (priority 2007, published 2010).

In data set [1] the target is T1, DPPIV (Homo sapiens, UniProt P27487). The experiment in a line: In vitro plasma stability (kinetic test method), GLP-1 (active) ELISA. Conditions: for remaining at 9 h, 1 μM: human, pH 7.8.
Target sequence in this assay (P27487 whole entry): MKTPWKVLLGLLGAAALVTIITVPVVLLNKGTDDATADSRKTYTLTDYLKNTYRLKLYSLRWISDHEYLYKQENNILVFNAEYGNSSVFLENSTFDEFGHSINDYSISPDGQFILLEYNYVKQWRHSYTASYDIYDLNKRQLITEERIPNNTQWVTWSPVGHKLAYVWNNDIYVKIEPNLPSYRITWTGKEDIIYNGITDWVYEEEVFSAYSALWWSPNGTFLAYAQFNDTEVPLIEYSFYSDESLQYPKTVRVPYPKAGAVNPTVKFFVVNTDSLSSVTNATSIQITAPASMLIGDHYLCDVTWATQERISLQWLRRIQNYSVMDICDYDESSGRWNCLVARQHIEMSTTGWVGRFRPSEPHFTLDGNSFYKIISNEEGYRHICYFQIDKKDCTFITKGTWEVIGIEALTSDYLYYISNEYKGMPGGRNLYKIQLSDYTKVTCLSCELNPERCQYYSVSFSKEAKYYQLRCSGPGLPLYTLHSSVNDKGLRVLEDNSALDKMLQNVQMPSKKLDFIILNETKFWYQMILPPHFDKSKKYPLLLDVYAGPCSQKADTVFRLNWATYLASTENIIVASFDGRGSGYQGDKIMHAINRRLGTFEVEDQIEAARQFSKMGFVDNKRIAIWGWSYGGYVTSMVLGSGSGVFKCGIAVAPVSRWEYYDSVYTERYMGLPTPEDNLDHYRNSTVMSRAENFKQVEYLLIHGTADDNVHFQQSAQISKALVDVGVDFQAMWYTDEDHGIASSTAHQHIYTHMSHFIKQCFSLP
From the text: Results are from triplicates in at least two independent experiments.
A further data set deals with diabetic db/db mice. The experiment in a line: In vivo bioactivity of PEGylated peptide in diabetic db/db mice.
Another data set has as its target T2, GLP-1 receptor (Homo sapiens, UniProt P43220).
T2 construct: expressed in transfected cells; host or cells: CHO cell line
In kind it is cell-based. The procedure:
GLP-1 Bioassay cAMP Increase
The in vitro bioactivity was tested in a GLP-1 receptor transfected CHO cell line by determining the half maximum effective dose (ED50)

For data set [2], the system named is type II diabetic mice (C57BL/Ks-Lepr db/db). As to the kind of experiment: In vivo bioactivity in type II diabetic mice. Conditions: 5 μg peptide s.c. twice a day, day 2, 4, 7, 10. The procedure: 11-week-old type II diabetic mice (C57BL/Ks-Lepr^db/db, Harlan) were treated with 5 μg peptide by subcutaneous injection twice a day at 9 a.m. and 5 p.m. (n=5 per group). Blood glucose was measured before (day 0) and after treatment with GLP^CM peptides (Day 2, 4, 7, 10) at 10 a.m. after an overnight fastening period. Data were presented in relation to blood glucose levels measured at day 0.
Best results were obtained with recombinant SEQ ID NO:6 (CM1) and synthetic SEQ ID NO:8 (CM3). In FIG. 9 (y-axis) the relative effect of the treatment is shown. Blood glucose at day ═O was set to 1. Untreated animals undergo continuous increase in blood glucose level over time, whereas animals treated with inventive peptides display grosso modo a continuous decrease of the blood glucose level over time.

In data set [3] the test system is BALB/c mice. Conditions: mouse, in vivo.
Method: (§1) The trial was done in BALB/c mice receiving 5 repeated injections (70 μg peptide/dose, i.v.) over 22d (n=5).
(§2) Spleens of the treated and control mice were explanted, T-cells isolated and stimulated with increasing amounts of antigene. Proliferative recall response is measured.
For data set [4], the system named is BALB/c mice. As to the kind of experiment: In vivo immunogenicity study. Conditions: 5 repeated injections, 70 μg peptide/dose, i.v., over 22d.
Method: as §1, §2
In data set [5] the test system is diabetic C57BL/KsJ@Rj-db (db/db) mice. As to the kind of experiment: Dose-efficacy study in diabetic mice. In kind it is in vivo. On the procedure: A sixth group was treated with saline only. 7 animals were treated per group. Blood glucose was determined from tail bleeds directly before, 1 hour and 4 hours after injection.
The results are shown in dose-response curves according to FIG. 12 ([…] (GLP-1), FIG. 12B (CM1), FIG. 12C (CM3) and FIG. 12D (CM3-ANA01)). For every test substance a graph was prepared with the percentage difference of the blood glucose in relation to the start value for the different concentrations. […] Both models are sigmoidal fit models suitable for dose response evaluation. For every peptide the plasma glucose ED50 values (single s.c. dose in μg/mouse) have been determined from the percentage decrease of blood glucose.
The fall in plasma glucose and the corresponding significance levels are given for the time period 1 hour (@1 h) and 4 hours (@4 h) after peptide injection. Differences have been observed in the long-term efficacy of the peptides.

For data set [6], the system named is C57BL/KsJ@Rj-db (db/db) mice. The experiment in a line: Long-term treatment of db/db mice. The class given is in vivo. On the procedure:
Peptides or vehicle will be given once daily (group A-D) between 2°°-3°° p m. subcutaneously in the skin fold of the back. The regimen was continued for 18 weeks. From week 12 to 18 treatment was done twice a day in 6 of 12 animals per group.
Various parameters of the mice were investigated, i.e. health status (1), body weight (2), food consumption (3), blood glucose (4), glucose tolerance test (5), insulin data (6), glycosylated hemoglobin (7), pathology (8), and restimulation of T cells (9). • Health status (1) was good in all groups, no side effects of the treatment have been seen. • Body weight (2) was lower in all treated groups after 18 weeks of treatment (FIG. 13). […] The mean values of 12 animals per group are plotted. […] The relative body weight increase of 12 animals per group after a treatment of 122 days is plotted. […] Non-fasted blood glucose level (1 hour after peptide injection) is shown in FIG. 15A, i.e. the effect of a treatment with saline (A), CM1 (B), CM3-ANA01 (C) or exendin (D) on the non-fasted blood glucose levels. Blood glucose was measured from a tail bleed 1 hour after s.c. injection of saline (A) or the peptides CM1 (B), CM3-ANA01 (C) or exendin (D) in a concentration of 24 nmol/kg. […] Blood glucose was measured from a tail bleed after a 12-hour overnight fast 18 hours after s.c. injection of the test substances. Fasted blood glucose level 18h after peptide injection is reduced in the CM1 and CM3-ANA01 group. • An i.p. glucose tolerance test (5) (IPGTT) was conducted after 8 weeks of treatment on mice of the groups A-D. The basal blood glucose value (0 min) of 12 hour fasted animals has been determined by tail bleed followed by an s.c. injection of the test substance and an i.p. injection of 20% glucose solution (1g glucose per kg). Blood glucose has been further on determined 15, 30, 45, 60, 90 and 120 minutes after glucose injection. […] The serum was analysed for insulin with the Insulin Mouse Ultrasensitive ELISA (Cat.# EIA-3440, DRG). […]

For data set [7], the target named is T1, DPPIV. As to the kind of experiment: In vitro human plasma stability of GLP-1 CM peptides. To be noted: 20 ng/ml, 37° C., 3 hours.
Target sequence in this assay (P27487 39-766 limits assumed): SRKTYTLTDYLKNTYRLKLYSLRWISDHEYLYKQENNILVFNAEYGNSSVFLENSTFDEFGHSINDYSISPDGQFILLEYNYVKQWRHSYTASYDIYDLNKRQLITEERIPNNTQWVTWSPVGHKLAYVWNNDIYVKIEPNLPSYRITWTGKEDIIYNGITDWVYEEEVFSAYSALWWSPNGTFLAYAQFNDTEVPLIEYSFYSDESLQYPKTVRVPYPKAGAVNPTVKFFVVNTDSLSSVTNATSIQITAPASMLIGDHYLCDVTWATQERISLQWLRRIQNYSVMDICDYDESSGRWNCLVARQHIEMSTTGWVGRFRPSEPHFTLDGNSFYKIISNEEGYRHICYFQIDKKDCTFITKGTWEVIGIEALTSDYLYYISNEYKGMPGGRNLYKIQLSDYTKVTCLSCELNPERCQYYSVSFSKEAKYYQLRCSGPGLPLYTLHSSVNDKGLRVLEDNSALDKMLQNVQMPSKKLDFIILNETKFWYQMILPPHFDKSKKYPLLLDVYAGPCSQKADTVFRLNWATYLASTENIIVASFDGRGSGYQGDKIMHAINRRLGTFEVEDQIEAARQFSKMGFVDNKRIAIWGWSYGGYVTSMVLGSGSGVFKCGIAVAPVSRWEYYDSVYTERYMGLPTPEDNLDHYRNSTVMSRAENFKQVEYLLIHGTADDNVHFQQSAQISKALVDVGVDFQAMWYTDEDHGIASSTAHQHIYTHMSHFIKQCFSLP
From the text: Dipeptidylpeptidase activity of the plasma was inhibited by an DPP-IV inhibitor (#DPP4, Biotrend).

Ends that are not written are not given here.

T2 sequence (P43220 24-463, species assumed): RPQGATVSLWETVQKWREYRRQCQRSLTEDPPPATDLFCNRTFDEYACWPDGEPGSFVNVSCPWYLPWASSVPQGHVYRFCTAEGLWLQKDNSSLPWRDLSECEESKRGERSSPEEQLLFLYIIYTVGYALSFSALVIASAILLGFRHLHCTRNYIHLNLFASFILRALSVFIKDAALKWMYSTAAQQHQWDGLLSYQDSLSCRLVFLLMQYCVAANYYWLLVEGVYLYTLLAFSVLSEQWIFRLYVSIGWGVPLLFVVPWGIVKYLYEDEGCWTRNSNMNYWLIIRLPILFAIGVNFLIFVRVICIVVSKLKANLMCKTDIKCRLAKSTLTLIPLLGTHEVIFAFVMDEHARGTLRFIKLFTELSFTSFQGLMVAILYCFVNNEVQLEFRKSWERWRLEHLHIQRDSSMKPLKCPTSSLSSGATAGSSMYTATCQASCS

Regarding “HAEGTFTSDVSSYLEGQAAKEFIAWLVKGRGRRDAAAAVAIAEELG [CM3-ANA03]”, on DPPIV [1] (10% human plasma, 37° C.), the “in vitro plasma stability (comparison)” value is listed as “strongly reduced stability compared to CM3”.

As for “PEG-CM3-ANA08: CM3-ANA08 covalently conjugated to unbranched 40 kDa mPEG maleimido propionamide via thiol of the C-terminal cysteine (HAEGTFTSDVSSYLEGQAAKEFIAWLVKGRGRRDFPEEVAIAEELGC)”, in the data set with DPPIV [1] (0 hours), the “peptide detected in the GLP-1 active ELISA” value is recorded as 19%. Also, in the data set with diabetic db/db mice (mouse, in vivo), the signs of toxicity entry is given as “No signs of toxicity”. The blood glucose decrease result with diabetic db/db mice (treated versus non-treated group) was “significant blood glucose decrease”. Besides, the “ED50 relative to CM3 (lowered in vitro bioactivity)” value in the data set with GLP-1 receptor (GLP-1 receptor transfected CHO cell line) is listed as “approximately 5 times”.

With GLP-1(7-37)—IP2-RR-GLP1(7-37) [CM1], in data set [2], the “anti-hyperglycemia effect (blood glucose relative to day 0)” value is “anti-hyperglycemia effect”. The clinically relevant immunogenicity in the data set on BALB/c mice [3] is reported as “absence of any clinically relevant immunogenicity”. Further, the toxicity result in the data set on BALB/c mice [4] was “no toxicity”. Also, in [5] (single s.c. dose, 1 h measurements, percentage decrease of blood glucose), the “ED50 (plasma glucose)” value was found to be 0.61 μg/mouse. Further, in [5] (single s.c. injection of 1.1-3.0 nmol peptide, versus control, 1 hour), the “fall in plasma glucose @1 h” value is on record as 50% ± 14%. For the same substance, the “fall in plasma glucose @4 h” value in data set [5] (single s.c. injection of 1.1-3.0 nmol peptide, versus control, 4 hours) turned out to be 0%. Further, the food consumption entry in [6] (24 nmol/kg s.c., 122 day treatment period, compared to the control) is on record as “significantly lower”. For the same substance, the “fasted blood glucose level” value in data set [6] (12-hour overnight fast, 18h after peptide injection) was “reduced”. Moreover, the “non fasted blood glucose level compared to control” value in data set [6] (1h after s.c. peptide injection, 24 nmol/kg) is reported as 55%.

Regarding “HAEGTFTSDVSSYLEGQAAKEFIAWLVKGRGAADFPEEVAIAEELG [CM3-ANA01]”, on DPPIV [1] (1 μM peptide, 10% human plasma, 37° C., 9 h), the “active GLP-1 as a % of the 0 h value after 9 h” value amounted to 84%. Moreover, at DPPIV [1] (10% human plasma, 37° C.), the “in vitro plasma stability (comparison)” value is given as “higher plasma stability than CM3”. The substance further had an amount remaining at 9 h, 1 μM at DPPIV [1] (10% human plasma) of 84%. Also, on GLP-1 receptor, the “ED50 (half maximum effective dose), cAMP increase” value stood at 159 µM.

As for “HAEGTFTSDVSSYLEGQAAKEFIAWLVKGRGRRDFPEEVAIAEELG [CM3]”, the “stability in human plasma in vitro” value on DPPIV [7] is listed as “significantly stabilized”. For the same substance, at DPPIV [1] (10% human plasma), the share remaining at 9 h, 1 μM was 63%. At GLP-1 receptor, the “ED50 (half maximum effective dose), cAMP increase” value worked out at 187 µM.
